According to the NIST ThermoML archive (doi:10.1021/acs.jced.8b00554):

Assay: xn = mol fraction of the nth substance listed
Conditions: Liquid, Vibrating tube method

CCCCCCCCCC [decane] + CCCO
mass density [kg/m3]
Conditions	313.15 K	323.15 K
100 kPa, x2 = 0.1391	716.51	707.51
100 kPa, x2 = 0.1907	717.9	709.03
100 kPa, x2 = 0.3001	721.57	712.69
100 kPa, x2 = 0.4326	726.91	717.73
100 kPa, x2 = 0.6863	743.48	734.39
100 kPa, x2 = 0.8711	764.1	755.13
1000 kPa, x2 = 0.1907	–	709.9
1000 kPa, x2 = 0.3001	723.23	–
1000 kPa, x2 = 0.4326	728.22	–
1000 kPa, x2 = 0.6863	–	735.11
1010 kPa, x2 = 0.1391	–	708.44
1010 kPa, x2 = 0.1907	718.96	–
1010 kPa, x2 = 0.3001	–	713.84
1010 kPa, x2 = 0.4326	–	718.54
1010 kPa, x2 = 0.6863	744.97	–
1010 kPa, x2 = 0.8711	765.33	–
1020 kPa, x2 = 0.1391	717.29	–
1020 kPa, x2 = 0.8711	–	755.79
2000 kPa, x2 = 0.1391	718.2	–
2000 kPa, x2 = 0.1907	719.85	–
2000 kPa, x2 = 0.4326	–	719.49
2000 kPa, x2 = 0.8711	766.21	–
2010 kPa, x2 = 0.1391	–	709.4
2010 kPa, x2 = 0.1907	–	710.86
2010 kPa, x2 = 0.3001	724.13	714.8
2010 kPa, x2 = 0.4326	729.1	–
2010 kPa, x2 = 0.6863	745.85	–
2020 kPa, x2 = 0.6863	–	736.08
2020 kPa, x2 = 0.8711	–	756.71
3000 kPa, x2 = 0.1391	719.08	–
3000 kPa, x2 = 0.4326	730	–
3000 kPa, x2 = 0.8711	–	757.64
3010 kPa, x2 = 0.1391	–	710.34
3010 kPa, x2 = 0.1907	720.73	711.79
3010 kPa, x2 = 0.4326	–	720.43
3010 kPa, x2 = 0.6863	746.75	737.03
3020 kPa, x2 = 0.3001	725.02	715.74
3020 kPa, x2 = 0.8711	767.09	–
4000 kPa, x2 = 0.3001	–	716.68
4010 kPa, x2 = 0.1391	719.94	–
4010 kPa, x2 = 0.1907	721.6	–
4010 kPa, x2 = 0.3001	725.89	–
4010 kPa, x2 = 0.4326	–	721.39
4010 kPa, x2 = 0.6863	747.62	737.97
4010 kPa, x2 = 0.8711	767.96	–
4020 kPa, x2 = 0.1391	–	711.27
4020 kPa, x2 = 0.1907	–	712.75
4020 kPa, x2 = 0.4326	730.9	–
4020 kPa, x2 = 0.8711	–	758.56
5000 kPa, x2 = 0.1391	–	712.19
5000 kPa, x2 = 0.3001	726.76	717.61
5000 kPa, x2 = 0.4326	–	722.33
5000 kPa, x2 = 0.8711	–	759.48
5010 kPa, x2 = 0.1391	720.8	–
5010 kPa, x2 = 0.1907	722.46	–
5020 kPa, x2 = 0.1907	–	713.66
5020 kPa, x2 = 0.4326	731.76	–
5020 kPa, x2 = 0.6863	748.51	738.91
5020 kPa, x2 = 0.8711	768.83	–
6000 kPa, x2 = 0.1391	721.67	713.11
6000 kPa, x2 = 0.4326	732.64	–
6000 kPa, x2 = 0.6863	749.38	–
6010 kPa, x2 = 0.1907	723.31	714.57
6010 kPa, x2 = 0.3001	–	718.54
6010 kPa, x2 = 0.4326	–	723.28
6010 kPa, x2 = 0.6863	–	739.85
6010 kPa, x2 = 0.8711	769.69	760.42
6020 kPa, x2 = 0.3001	727.63	–
7000 kPa, x2 = 0.1907	724.18	–
7000 kPa, x2 = 0.4326	–	724.2
7010 kPa, x2 = 0.1391	722.52	–
7010 kPa, x2 = 0.1907	–	715.47
7010 kPa, x2 = 0.3001	–	719.46
7010 kPa, x2 = 0.6863	750.25	–
7010 kPa, x2 = 0.8711	–	761.33
7020 kPa, x2 = 0.1391	–	714.02
7020 kPa, x2 = 0.3001	728.48	–
7020 kPa, x2 = 0.4326	733.49	–
7020 kPa, x2 = 0.6863	–	740.78
7020 kPa, x2 = 0.8711	770.55	–
8000 kPa, x2 = 0.1907	–	716.39
8000 kPa, x2 = 0.3001	729.32	–
8000 kPa, x2 = 0.6863	751.12	–
8010 kPa, x2 = 0.1391	723.35	714.92
8010 kPa, x2 = 0.1907	725.03	–
8010 kPa, x2 = 0.4326	734.37	725.12
8010 kPa, x2 = 0.8711	771.39	762.24
8020 kPa, x2 = 0.3001	–	720.36
8020 kPa, x2 = 0.6863	–	741.71
9000 kPa, x2 = 0.1391	–	715.8
9000 kPa, x2 = 0.1907	–	717.29
9000 kPa, x2 = 0.4326	–	726.05
9000 kPa, x2 = 0.6863	–	742.63
9000 kPa, x2 = 0.8711	–	763.15
9010 kPa, x2 = 0.1391	724.19	–
9010 kPa, x2 = 0.1907	725.85	–
9010 kPa, x2 = 0.3001	730.17	721.28
9010 kPa, x2 = 0.6863	751.97	–
9020 kPa, x2 = 0.4326	735.2	–
9020 kPa, x2 = 0.8711	772.23	–
10000 kPa, x2 = 0.1391	–	716.7
10000 kPa, x2 = 0.1907	–	718.16
10000 kPa, x2 = 0.3001	–	722.18
10000 kPa, x2 = 0.6863	752.81	–
10010 kPa, x2 = 0.1391	724.99	–
10010 kPa, x2 = 0.1907	726.66	–
10010 kPa, x2 = 0.3001	731	–
10010 kPa, x2 = 0.4326	736.06	–
10020 kPa, x2 = 0.8711	773.07	–
11000 kPa, x2 = 0.1907	727.49	–
11000 kPa, x2 = 0.3001	731.82	–
11000 kPa, x2 = 0.6863	753.64	–
11010 kPa, x2 = 0.1391	725.82	–
11010 kPa, x2 = 0.8711	773.9	–
11020 kPa, x2 = 0.4326	736.89	–
12000 kPa, x2 = 0.8711	774.72	–
12010 kPa, x2 = 0.1907	728.3	–
12010 kPa, x2 = 0.3001	732.64	–
12010 kPa, x2 = 0.4326	737.71	–
12010 kPa, x2 = 0.6863	754.47	–
12020 kPa, x2 = 0.1391	726.61	–
13000 kPa, x2 = 0.1391	727.41	–
13000 kPa, x2 = 0.1907	729.09	–
13000 kPa, x2 = 0.8711	775.51	–
13010 kPa, x2 = 0.3001	733.44	–
13010 kPa, x2 = 0.4326	738.53	–
13010 kPa, x2 = 0.6863	755.3	–
14000 kPa, x2 = 0.3001	734.23	–
14010 kPa, x2 = 0.1391	728.19	–
14010 kPa, x2 = 0.4326	739.32	–
14010 kPa, x2 = 0.6863	756.1	–
14020 kPa, x2 = 0.1907	729.89	–
14020 kPa, x2 = 0.8711	776.33	–
15000 kPa, x2 = 0.6863	756.89	–
15010 kPa, x2 = 0.1391	728.97	–
15010 kPa, x2 = 0.1907	730.66	–
15010 kPa, x2 = 0.3001	735.01	–
15010 kPa, x2 = 0.4326	740.1	–
15020 kPa, x2 = 0.8711	777.12	–
16000 kPa, x2 = 0.4326	740.87	–
16010 kPa, x2 = 0.1391	729.71	–
16010 kPa, x2 = 0.6863	757.68	–
16010 kPa, x2 = 0.8711	777.89	–
16020 kPa, x2 = 0.1907	731.41	–
16020 kPa, x2 = 0.3001	735.77	–
17000 kPa, x2 = 0.6863	758.44	–
17010 kPa, x2 = 0.1391	730.47	–
17020 kPa, x2 = 0.1907	732.18	–
17020 kPa, x2 = 0.3001	736.53	–
17020 kPa, x2 = 0.4326	741.63	–
17020 kPa, x2 = 0.8711	778.66	–
18000 kPa, x2 = 0.1391	731.21	–
18010 kPa, x2 = 0.3001	737.27	–
18010 kPa, x2 = 0.4326	742.38	–
18010 kPa, x2 = 0.6863	759.2	–
18010 kPa, x2 = 0.8711	779.44	–
18020 kPa, x2 = 0.1907	732.92	–
19000 kPa, x2 = 0.1391	731.93	–
19000 kPa, x2 = 0.1907	733.63	–
19000 kPa, x2 = 0.3001	738.01	–
19000 kPa, x2 = 0.6863	759.95	–
19020 kPa, x2 = 0.4326	743.13	–
19020 kPa, x2 = 0.8711	780.17	–
20000 kPa, x2 = 0.3001	738.71	–
20000 kPa, x2 = 0.4326	743.85	–
20010 kPa, x2 = 0.6863	760.69	–
20020 kPa, x2 = 0.1391	732.61	–
20020 kPa, x2 = 0.1907	734.34	–
20020 kPa, x2 = 0.8711	780.91	–
